Data: the supplement of paper PMC10307832

Columns and labels:
Experiment in all cases: relative viability (nuclei count vs DMSO), 5 days (fraction); higher = more cells survive
Selisistat + Navitoclax = compound: C1CC(C2=C(C1)C3=C(N2)C=CC(=C3)Cl)C(=O)N [Selisistat] + CC1(C)CCC(c2ccc(Cl)cc2)=C(CN2CCN(c3ccc(C(=O)NS(=O)(=O)c4ccc(N[C@H](CCN5CCOCC5)CSc5ccccc5)c(S(=O)(=O)C(F)(F)F)c4)cc3)CC2)C1 [Navitoclax] (partner 0.5 µM)
How it was run: (§1)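 For relative viability, nuclei counts in treated wells were divided by those in vehicle wells. Lung cancer cell lines had been pin-tool dosed in 1536-well plates the day after seeding and cultured for 5 days, then fixed and stained in one step (final 0.05% Triton X-100, 1% formaldehyde, 1 ug/ml Hoechst) and imaged at 4×. Doses were one drug alone or a fixed anchor-drug dose plus five library-drug doses (not always all listed) in √10 steps, and values are duplicate-plate medians.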

Selisistat + Lapatinib = compound: C1CC(C2=C(C1)C3=C(N2)C=CC(=C3)Cl)C(=O)N [Selisistat] + CS(=O)(=O)CCNCc1ccc(-c2ccc3ncnc(Nc4ccc(OCc5cccc(F)c5)c(Cl)c4)c3c2)o1 [Lapatinib] (partner 2 µM)
How it was run: as §1

Serdemetan + Luminespib = compound: c1ccc2c(CCNc3ccc(Nc4ccncc4)cc3)c[nH]c2c1 [Serdemetan] + CCNC(=O)c1noc(-c2cc(C(C)C)c(O)cc2O)c1-c1ccc(CN2CCOCC2)cc1 [Luminespib] (partner 0.01 µM)
How it was run: as §1

Serdemetan + Dasatinib = compound: c1ccc2c(CCNc3ccc(Nc4ccncc4)cc3)c[nH]c2c1 [Serdemetan] + Cc1nc(Nc2ncc(C(=O)Nc3c(C)cccc3Cl)s2)cc(N2CCN(CCO)CC2)n1 [Dasatinib] (partner 0.075 µM)
How it was run: as §1

Cell Line | relative viability (Selisistat + Navitoclax; first compound 0.4 µM) | relative viability (Selisistat + Navitoclax; first compound 1.265 µM) | relative viability (Selisistat + Navitoclax; first compound 4 µM) | relative viability (Selisistat + Navitoclax; first compound 12.65 µM) | relative viability (Selisistat + Navitoclax; first compound 40 µM) | relative viability (Selisistat + Lapatinib; first compound 0.4 µM) | relative viability (Selisistat + Lapatinib; first compound 1.265 µM) | relative viability (Selisistat + Lapatinib; first compound 4 µM) | relative viability (Selisistat + Lapatinib; first compound 12.65 µM) | relative viability (Selisistat + Lapatinib; first compound 40 µM) | relative viability (Serdemetan + Luminespib; first compound 0.04 µM) | relative viability (Serdemetan + Luminespib; first compound 0.1265 µM) | relative viability (Serdemetan + Luminespib; first compound 0.4 µM) | relative viability (Serdemetan + Luminespib; first compound 1.265 µM) | relative viability (Serdemetan + Luminespib; first compound 4 µM) | relative viability (Serdemetan + Dasatinib; first compound 0.04 µM) | relative viability (Serdemetan + Dasatinib; first compound 0.1265 µM) | relative viability (Serdemetan + Dasatinib; first compound 0.4 µM) | relative viability (Serdemetan + Dasatinib; first compound 1.265 µM) | relative viability (Serdemetan + Dasatinib; first compound 4 µM)
NCI-H2126 | 0.888 | 0.837 | 0.829 | 0.899 | 0.913 | 0.828 | 0.775 | 0.623 | 0.794 | 0.856 | 0.983 | 0.964 | 0.9 | 0.88 | 1.01 | 0.643 | 0.665 | 0.517 | 0.467 | 0.557
EMC-BAC-2 | 1.13 | 1.09 | 1.07 | 1.15 | 1.2 | 0.869 | 0.875 | 0.848 | 0.894 | 0.848 | 1.14 | 1.12 | 1.13 | 0.616 | 0.636 | 0.304 | 0.358 | 0.344 | 0.268 | 0.293
NCI-H1993 | 0.969 | 0.891 | – | 1.03 | 0.986 | 0.683 | 0.751 | – | 0.913 | 0.806 | 0.981 | 0.778 | 0.811 | 0.768 | 0.758 | 0.578 | 0.698 | 0.517 | 0.507 | 0.461
NCI-H520 | 1.06 | 0.959 | 1.18 | 1.13 | 1.03 | 0.811 | 0.898 | 0.814 | 0.751 | 0.766 | 0.255 | 0.204 | 0.232 | – | 0.205 | 0.244 | 0.182 | 0.223 | – | 0.198
NCI-H647 | 1.11 | – | – | 0.993 | 1.13 | 1.19 | 1.07 | – | 0.993 | 1.17 | 0.272 | 0.185 | 0.176 | 0.123 | 0.112 | 0.217 | 0.153 | 0.156 | 0.184 | 0.167
